Experimental data taken from patent US8901168B2 (priority 2007, dated 2014).

Test system: anti-TT antibodies
Design: species or system BALB/c mice
Details: mouse, in vivo

Row | SMILES | anti-TT Ig titres | anti-TT antibody titres after the third vaccination vs α-T treated mice | anti-TT antibody titres after the third vaccination, ranking of groups | antibody titres after the third immunisation as compared to first immunisation
1 | Cc1c(C)c2c(c(C)c1O)CC[C@@](C)(CCC[C@H](C)CCC[C@H](C)CCCC(C)C)O2 [α-T, α-tocopherol] | significantly (P<0.05) enhanced |  |  | 
2 | CC(C)=CCC/C(C)=C/CC/C(C)=C/CC[C@]1(C)CCc2cc(O)cc(C)c2O1 [δ-T3, δ-tocotrienol] | significantly (P<0.05) enhanced | significantly (P<0.01) higher | highest | highly significant (P<0.01) antibody titres
